Measured values: patent US20090068243A1, “Novel formulations for delivery of antiviral peptide therapeutics” (priority 2007, published 2009)

Assays:
HIV-IIIB = conditions: 50% reduction in infectious virus titer
Text: Assessment of biological properties included measurement of antiviral activity against HIV-1 strains. […] These assays score for reduction of infectious virus titer employing the indicator cell lines MAGI or the CCR5 expressing derivative cMAGI. Both cell lines exploit the ability of HIV-1 tat to transactivate the expression of a β-galactosidase reporter gene driven by the HIV-LTR. The β-gal reporter has been modified to localize in the nucleus and can be detected with the X-gal substrate as intense nuclear staining within a few days of infection. The number of stained nuclei can thus be interpreted as equal to the number of infectious virions in the challenge inoculum if there is only one round of infection prior to staining. […] In the MAGI and cMAGI assays, a 50% reduction in infectious titer (Vn/Vo=0.5) is significant, and provides the primary cutoff value for assessing antiviral activity (“IC50” is defined as the concentration of active ingredient resulting in a 50% reduction in infectious virus titer). […] The number of infected cells for each control and peptide dilution was determined with the CCD-imager, and then the IC50 was calculated (expressed in μg/ml).

[1] = Intravenous pharmacokinetics in cynomolgus monkeys; type: in vivo, cynomolgus monkeys (Macaca fasicularis)
Experimental: For determining pharmacokinetic properties, an HIV fusion inhibitor peptide or a base sequence from which an HIV fusion inhibitor peptide is derived was dosed intravenously in cynomolgus monkeys (Macaca fasicularis) (other animal models may be used for determining pharmacokinetic properties, as known in the art). At various times post-dose, blood samples were drawn and plasma isolated by centrifugation. Plasma samples were stored frozen until analysis by LC-MS (liquid chromatography/mass spectrometry) in the electrospray, positive-ion mode. An HIV fusion inhibitor or base sequence was eluted from a C18 or C8 HPLC column with a gradient of acetonitrile in a buffer of 10 mM ammonium acetate, pH 6.8. At the time of analysis, plasma samples were deproteinated with either two or three volumes of acetonitrile containing 0.5% formic acid. Duplicate calibration standards in cynomolgus plasma samples were prepared at the same time as the samples and analyzed before and after the samples containing either HIV fusion inhibitor peptide or base sequence. Pharmacokinetic properties were calculated from the plasma concentration-time data using either mono-exponential or bi-exponential mathematical models. Models were derived by non-linear least squares optimization. A 1/C^2 weighting of concentrations was used. The following equations were used to calculate area-under the plasma concentration vs. time curve (AUC), total body clearance (Cl), and terminal elimination half-life (t ½).
Where A and B are intercepts and a and b are the rate constants of the exponential equations describing the distribution and elimination phases, respectively. When mono-exponential models were used, the “A” and “a” properties were eliminated.
Cl=Dose/AUC (expressed in L/K/hr)
t½=0.6903/b (expressed in hr)

[2] = Stability in aqueous solution (PBS), peptide remaining in solution by HPLC; type: physicochemical; conditions: 10 mg/ml in PBS, about pH 7.3 to 7.5, 37° C., time point of 1 week
584.000030 = tested on: 584.000030
Text: (§1) Assessment of biological properties included measurement of antiviral activity against HIV-1 strains. […] These assays score for reduction of infectious virus titer employing the indicator cell lines MAGI or the CCR5 expressing derivative cMAGI. Both cell lines exploit the ability of HIV-1 tat to transactivate the expression of a β-galactosidase reporter gene driven by the HIV-LTR. The β-gal reporter has been modified to localize in the nucleus and can be detected with the X-gal substrate as intense nuclear staining within a few days of infection. The number of stained nuclei can thus be interpreted as equal to the number of infectious virions in the challenge inoculum if there is only one round of infection prior to staining. […] In the MAGI and cMAGI assays, a 50% reduction in infectious titer (Vn/Vo=0.5) is significant, and provides the primary cutoff value for assessing antiviral activity (“IC50” is defined as the concentration of active ingredient resulting in a 50% reduction in infectious virus titer). […] The peptide (in the respective dilution) was added to the cMAGI or MAGI cells, followed by the virus inocula; and 24 hours later, an inhibitor of infection and cell-cell fusion (e.g., SEQ ID NO:2 (enfuvirtide)) was added to prevent secondary rounds of HIV infection and cell-cell virus spread. The cells were cultured for 2 more days, and then fixed and stained with the X-gal substrate to detect HIV-infected cells. The number of infected cells for each control and peptide dilution was determined with the CCD-imager, and then the IC50 was calculated (expressed in μg/ml).
(§2) In particular, in vitro resistance comparison studies were performed between the novel SEQ ID NO:9 compound of interest and established antiviral agent SEQ ID NO:2, described in detail as follows: MT2 cells were infected with virus isolates (IIIB, 030, 060 and 098) and cultured in increasing concentrations of SEQ ID NO:2 (enfuvirtide) or SEQ ID NO:9 to select for resistance. The initial peptide concentration was approximately 2 times the IC50 of each peptide against the corresponding wild type isolate. Peptide concentrations were maintained by adding fresh peptide every 1-3 days. Cultures were monitored for cytopathic effect (CPE) using standard techniques and when maximal CPE was achieved, a small aliquot of virus was used for subsequent rounds of infection. Peptide concentrations were increased 2 to 4-fold depending on the length of time in culture when compared to the growth rate of wild type virus. During the course of selection, peptide-free virus stocks were also collected. Peptide-free virus stocks were characterized for gp41 genotypic changes by dideoxy sequencing chemistries and phenotypic susceptibility was determined using a cMAGI infectivity assay.

584.000060 = tested on: 584.000060
Text: as §1, §2

584.000098 = tested on: 584.000098
Text: as §1, §2

IIIB = conditions: starting virus isolate IIIB
Text: as §1, §2

[3] = tested on: virus isolates (IIIB, 030, 060 and 098)
Text: as §1, §2

Substance: Ac-TTWEAWDRAIAEYAARIEALLRALQEQQEKNEAALREL-NH2 [SEQ ID NO:9, TTWEAWDRAIAEYAARIEALLRALQEQQEKNEAALREL]
- Antiviral Activity (μg/ml) HIV-IIIB IC50 (HIV-IIIB): <0.10 µg/mL
- biological half-life relative to base sequence, in words ([1]; comment on Table 2): increased biological half-life
- clearance ([1]; cynomolgus monkey, plasma, iv, dosed intravenously): < 0.333 mL/min/kg
- half-life ([1]; cynomolgus monkey, plasma, iv, dosed intravenously, read-out: Half-life (t ½; hr) (converted)): 12 h
- peptide remaining detectable in solution [2]: ≥ 90%
- Fold Change in IC50 (584.000030; starting virus isolate 584.000030): 4
- Ending IC50 (584.000030; starting virus isolate 584.000030, after selection): 0.113 µg/mL
- Starting IC50 (584.000030; starting virus isolate 584.000030, before selection): 0.028 µg/mL
- Fold Change in IC50 (584.000060; starting virus isolate 584.000060): 26
- Ending IC50 (584.000060; starting virus isolate 584.000060, after selection): 0.208 µg/mL
- Starting IC50 (584.000060; starting virus isolate 584.000060, before selection): 0.008 µg/mL
- Fold Change in IC50 (584.000098; starting virus isolate 584.000098): 14
- Ending IC50 (584.000098; starting virus isolate 584.000098, after selection): 0.521 µg/mL
- Starting IC50 (584.000098; starting virus isolate 584.000098, before selection): 0.037 µg/mL
- Fold Change in IC50 (IIIB): 231
- Ending IC50 (IIIB; after selection): 2.768 µg/mL
- Starting IC50 (IIIB; before selection): 0.012 µg/mL
- Fold Change in IC50 ([3]; Geometric Mean of four isolates): 24
- Ending IC50 ([3]; Geometric Mean of four isolates, after selection): 0.429 µg/mL
- Starting IC50 ([3]; Geometric Mean of four isolates, before selection): 0.018 µg/mL
- barrier to development of resistance in vitro, in words ([3]; compared to SEQ ID NO:2): higher barrier to development of resistance in vitro
